Legend:
[1] = Example 16: Compound 1 solution SC PK study in dog; type: in vivo, male non-naïve Beagle dogs; details: 10 mg/kg
Description: The LC-MS methodology and conditions used to analyse the helicase-primase inhibitor Compound 1 in dog plasma samples from the dog PK study described in Example 16 are given in Table 9.
(§1) A solution of Compound 1 in 90% NMP and 10% Solutol HS15 at a concentration of 50 mg/mL was prepared as follows: • 1) An appropriate amount of crystalline Compound 1 (Form C) was weighed and added to NMP. • 2) After Compound 1 had dissolved, Solutol HS15 was added to the solution and mixed. • 3) The final dosing formulation was a clear solution.
as §1, with “100” for “50”
Male non-naïve beagles were used for the dog PK study. The animals had free access to food and water. The prepared 50 mg/mL solution was administered via subcutaneous injection to each animal group (n=3) with a dosing volume of 0.2 mL/kg to achieve a 10 mg/kg dose. […]
At each time point, approximately 0.5 mL of whole blood was collected into K2EDTA tubes. […] Plasma samples were stored at approximately −70° C. until analyzed by LC-MS.

[2] = Example 13: Compound 1 IV PK study in rat; type: in vivo, male Sprague Dawley rats; details: male, Sprague Dawley, plasma, 1 mg/kg, read-out: Rat t1/2 (converted)
Description: The LC-MS methodology and conditions used to analyse Compound 1 in plasma samples from the intra-venous injection PK studies (Example 13) are described in Tables 5 to 7. A 0.2 mg/mL solution of Compound 1 in 10% NMP, 10% Solutol HS15 and 80% Saline was prepared as follows: • 1) A stock solution of Compound 1 in NMP was prepared. • 2) An equal volume of the Compound 1 stock solution and Solutol HS15 were combined and mixed. • 3) The above solution was diluted with normal saline to reach the target concentration. The final formulation was a clear solution. Male Sprague Dawley (SD) rats with 230-250 g body weight, ages 6-8 weeks, were used for the rat pharmacokinetic study. The animals had free access to food and water. The Compound 1 solution described above was administered via intravenous injection to animals (n=3) to achieve a 1.0 mg/kg dose. At each time point, approximately 200 μL whole blood was collected in a K2EDTA tubes. Blood samples were put on ice and centrifuged at 2000 g for 5 min to obtain a plasma sample within 15 minutes. Plasma samples were stored at approximately −70° C. until analyzed by LC-MS according to the method described above.

[3] = Allometric scaling of multi-species PK data to human
[4] = Example 13: Compound 1 IV PK study in dog; type: in vivo, male non-naïve Beagle dogs; details: male, beagle, plasma, 0.15 mg/kg, read-out: Dog t1/2 (converted)
Description: The LC-MS methodology and conditions used to analyse Compound 1 in plasma samples from the intra-venous injection PK studies (Example 13) are described in Tables 5 to 7. A 0.15 mg/mL solution of Compound 1 in 10% DMSO, 10% Solutol HS15 and 80% Saline was prepared as follows: • 1) A stock solution of Compound 1 in DMSO was prepared. • 2) An equal volume of the Compound 1 stock solution and Solutol HS15 were combined and mixed. • 3) The above solution was diluted with normal saline to reach the target concentration. The final formulation was a clear solution. Male non-naïve beagles were used for the dog PK study. The animals had free access to food and water. […] At each time point, approximately 0.5 mL of whole blood was collected into K2EDTA tubes. Blood samples were put on ice and centrifuged at 2000 g for 5 min to obtain plasma samples within 15 minutes. Plasma samples were stored at approximately −70° C. until analyzed by LC-MS.

[5] = Example 15: Compound 1 solution SC PK study in rat; type: in vivo, male Sprague Dawley rats
Description: The LC-MS methodology and conditions used to analyse the helicase-primase inhibitor Compound 1 in rat plasma samples from the sub-cutaneous injection PK study described in Example 15 are provided in Table 8.
as §1, with “mixed […].” for “mixed.”
Male Sprague Dawley (SD) rats with ~230-250 g body weight (aged 6-8 weeks) were used for the pharmacokinetic study. The animals had free access to food and water. […]
(§2) At each time point, approximately 150 μL whole blood was collected in a K2EDTA tube via the jugular vein. Blood samples were put on ice and centrifuged at 2000 g for 5 min to obtain a plasma sample within 15 minutes. Plasma samples were stored at approximately −70° C. until analyzed by LC-MS.

[6] = Example 5: comparative pritelivir solution PK study in rat following IV/SC administration; type: in vivo, male Sprague Dawley rats; details: for AUC(0-t): male, Sprague Dawley, plasma, solution, n = 3
Description: A solution of crystalline pritelivir free base (dihydrate) in 5% NMP, 5% Solutol HS15 & 90% saline at a concentration of 0.5 mg/mL was prepared as follows: • 1) A stock solution of 10 mg/mL of pritelivir (dihydrate) in NMP was prepared. • 2) Equal volumes of the pritelivir stock solution and Solutol HS15 were combined and mixed. • 3) The above solution was diluted with normal saline to reach target 0.5 mg/mL pritelivir concentration. The formulation was a clear solution.
Male Sprague Dawley (SD) rats with ~300 g body weight (ages 6-8 weeks) were used for the pharmacokinetic study. The animals had free access to food and water. The pritelivir solution described above was administered via intravenous injection to animals (n=3) with a dosing volume of 2 mL/kg to achieve a 1 mg/kg dose. For subcutaneous injection, the dosing volume of 10 mL/kg was utilized to achieve a 5 mg/kg dose.
as §2, with “200” for “150”, “LC-MS according to the method described above.” for “LC-MS.”

HSV-1 = details: Field et al. (2013); read-out: in-vitro EC50 against HSV-1; cited from earlier work
[7] = solution in 90% NMP/10% Solutol HS15

Structure (SMILES) | adverse reactions at the injection sites ([1]; both solution formulations) | prolonged exposure for (length of the study) ([1]; solutions 50 mg/mL (0.2 mL/kg) and 100 mg/mL (0.1 mL/kg), both formulations) | half-life [2] [h] | predicted human clearance [3] [L/h] | half-life [4] [h] | adverse reactions at the injection sites [5, 7] | variability in plasma concentrations [5, 7] | prolonged exposure for (length of the study) ([5]; solution in 90% NMP/10% Solutol HS15 (50 mg/mL), dose of 50 mg/kg as printed, following an initial drug burst) [h] | F ([6]; intravenous (IV), 1 mg/kg) [%] | AUC(0-t) ([6]; intravenous (IV), 1 mg/kg) [µg·h/mL] | AUC(0-t) ([6]; subcutaneous (SC), 5 mg/kg) [µg·h/mL] | EC50 (HSV-1) [nM]
Cc1nc(N2CCCN(c3ccc(-c4cc(F)ccc4F)cc3)C2=O)sc1S(N)(=O)=O [Compound 1, 2-(3-(2′,5′-difluoro-[1,1′-biphenyl]-4-yl)-2-oxotetrahydropyrimidin-1(2H)-yl)-4-methylthiazole-5-sulfonamide] | no adverse reactions were observed | at least 60 days | 22 | 0.06 | 34.9 | no adverse reactions were observed | low | 960 |  |  |  | 
Cc1nc(N(C)C(=O)Cc2ccc(-c3ccccn3)cc2)sc1S(N)(=O)=O [pritelivir, N-methyl-N-(4-methyl-5-sulfamoyl-1,3-thiazol-2-yl)-2-[4-(pyridin-2-yl)phenyl]acetamide] |  |  |  |  |  |  |  |  | 100 | 31.8 | 185 | 26

Source: patent US20260216057A1, “PHARMACEUTICAL COMPOSITIONS FOR HERPES VIRUS” (priority 2022, published 2026)
